Measurements as given in patent EP0042348A1, “Olivacine derivatives and their therapeutical use” (priority 1980, dated 1981).
Where two headings read alike, the source gives them in different places.

Columns and labels:
[1] = Toxicity in mice after a single i.p. injection (maximal never-lethal dose); format: in vivo, souris; settings: for DL0 (i.p.): as printed in the compound cell of the dose-response table; for DL0 (Dose maximale jamais mortelle): mice; for toxicités générales (facteur d'augmentation): change on hydroxylation at position 10 of the named parent; for augmentation de la toxicité (facteur): fold increase on quaternisation
Excerpt: (§1) En pratique, on a utilisé des souris ayant reçu par voie intrapéritonéale un inoculum de cellules de leucémie L 1210 et ayant été, pour la moitié d'entre elles, soumises 24 heures après ladite inoculation tumorale à une injection intrapéritonéale d'une dose unique de l'un des composés à tester; l'autre moitié des souris a reçu une injection d'un volume identique d'un solvant inactif et servait de série témoin. On a réparti les souris au hasard dans chaque série expérimentale. Une première expérimentation de routine a permis de déterminer la mortalité par toxicité et de fixer ainsi les doses infra-létales.
On a ainsi pu déterminer la mortalité par toxicité sous l'effet d'une injection unique de l'un des composés à différentes doses (doses infra-létales DL 50 et DL 100) et évaluer le taux de survie du groupe d'animaux auxquels on n'avait injecté qu'une dose infra-létale d'un composé selon l'invention.
Pour l'évaluation de l'activité thérapeutique des composés selon l'invention, on a exprimé les doses desdits composés en les rapportant à la dose infra-létale 30 jours, que l'on a posée égale à 1. Cette dose infra-létale s'est en effet avérée plus facile à déterminer pour les composés de l'invention que la DL 10, dont elle est d'ailleurs très voisine et qui est habituellement prise comme référence pour l'évaluation de l'activité thérapeutique de composés à effet antitumoral (voir H.E. Skipper et coll., ouvrages cités).

leucémie L 1210 = test: Antitumour effect in DBA/2 mice inoculated i.p. with 10^5 L1210 leukaemia cells, single i.p. injection 24 h later; format: in vivo, souris; settings: for propriétés antitumorales: change on hydroxylation at position 10 of the named parent; for effet thérapeutique antitumoral: change on quaternisation; for propriétés antitumorales chez l'animal (facteur d'accroissement): fold increase on methoxylation at position 10 of the named parent
Excerpt: as §1
Conformément à la convention en usage dans ce domaine, on considérait comme guéris les animaux qui survivaient plus de 45 jours après l'inoculation de cellules tumorales.
On a calculé le taux de survie à partir d'une analyse statistique des résultats expérimentaux, par comparaison avec les résultats obtenus avec la série témoin, selon les méthodes bien connues de Mann-Whitey et de Wilcoxon; le pourcentage de cellules leucémiques tuées par le traitement réalisé était calculé par la méthode décrite par H.E.Skipper et coll. dans les articles cités plus haut, en prenant pour base, suivant le cas, soit l'augmentation de la survie moyenne en l'absence de survivants soit le pourcentage de survivants.
[…] Après 24 heures, on a fait à une moitié de ces souris une injection unique par voie intrapéritonéale d'une dose variable du composé respectif à tester (éventuellement mis au préalable sous la forme de l'un de ses sels hydrosolubles, si nécessaire), tandis qu'on injectait par la même voie à l'autre moitié des souris un même volume de solvant; cette dernière moitié du groupe de souris servait donc de série témoin. On a réparti les souris au hasard dans chaque série expérimentale.

cellules L1210 = test: In vitro growth inhibition of L1210 cells (48 h culture); settings: for IC50: read-out: DI50 (Dose qui réduit de 50 % la croissance des cellules L1210); for diminution de la cytotoxicité (facteur): fold decrease on quaternisation, versus the non-quaternised base
[2] = dose 0,01 of DL0, controls 9,3 ± 0,5 days, 15 mice
[3] = dose 0,1 of DL0, controls 9,3 ± 0,5 days, 15 mice
[4] = dose 0,01 of DL0, controls 9,7 ± 0,9 days, 10 mice
[5] = dose 0,05 of DL0, controls 9,3 ± 0,5 days, 15 mice
[6] = dose 0,5 of DL0, controls 9,3 ± 0,5 days, 15 mice
[7] = dose 0,5 of DL0, controls 9,7 ± 0,9 days, 10 mice
[8] = dose 0,8 of DL0, single i.p., ILS = T/C x 100
[9] = dose 1 of DL0, controls 9,3 ± 0,5 days, 15 mice
[10] = dose 0,005 of DL0, controls 9,3 ± 0,5 days, 15 mice
[11] = dose 0,1 of DL0, controls 9,2 days, 15 mice
[12] = dose 0,02 of DL0, controls 9,7 ± 0,9 days, 10 mice
[13] = dose 0,02 of DL0, controls 9,2 days, 15 mice
[14] = dose 0,5 of DL0, controls 9,2 days, 15 mice
[15] = dose 1 of DL0, controls 9,7 ± 0,9 days, 10 mice
[16] = dose 1 of DL0, controls 9,2 days, 15 mice
[17] = versus the non-quaternised base

CCN(CC)CC[n+]1ccc2c(C)c3[nH]c4ccc(O)cc4c3cc2c1C [4-β-diéthylaminoéthyl 10-OH olivacinium (acétate)]
DL0 (i.p.) [1]: 4-β -diéthyl-aminoéthyl 10-hydroxy olivacinium (acétate) DL0 (i.p.) = 100 mg
DL0 (Dose maximale jamais mortelle) [1]: 125 mg/kg
% de cellules tumorales tuées (leucémie L 1210; [2]): 99%
ILS (leucémie L 1210; [2]): 128%
survie moyenne en jours des souris traitées (leucémie L 1210; [2]): 11,9 ± 1,1 jours
survivants (leucémie L 1210; [2]): 0/15
% de cellules tumorales tuées (leucémie L 1210; [3]): 99,997%
ILS (leucémie L 1210; [3]): 162%
survie moyenne en jours des souris traitées (leucémie L 1210; [3]): 15,1 ± 1,4 jours
survivants (leucémie L 1210; [3]): 0/15
% de cellules tumorales tuées (leucémie L 1210; [4]): 97%
ILS (leucémie L 1210; [4]): 120%
survie moyenne en jours des souris traitées (leucémie L 1210; [4]): 11,6 ± 1,1 jours
survivants (leucémie L 1210; [4]): 0/10
% de cellules tumorales tuées (leucémie L 1210; [5]): 99,8%
ILS (leucémie L 1210; [5]): 136%
survie moyenne en jours des souris traitées (leucémie L 1210; [5]): 12,7 ± 0,4 jours
survivants (leucémie L 1210; [5]): 1/15
% de cellules tumorales tuées (leucémie L 1210; [6]): ≃99,999%
ILS (leucémie L 1210; [6]): 240%
survie moyenne en jours des souris traitées (leucémie L 1210; [6]): 22,3 ± 4,4 jours
survivants (leucémie L 1210; [6]): 1/15
% de cellules tumorales tuées (leucémie L 1210; [7]): 99,98%
ILS (leucémie L 1210; [7]): 150%
survie moyenne en jours des souris traitées (leucémie L 1210; [7]): 14,5 ± 2 jours
survivants (leucémie L 1210; [7]): 0/10
ILS (leucémie L 1210; [8]): 182%
survivants sur 15 (leucémie L 1210; dose 0,8 of DL0, single i.p., out of 15 mice): 4
% de cellules tumorales tuées (leucémie L 1210; [9]): ≃99,999%
ILS (leucémie L 1210; [9]): 182%
survie moyenne en jours des souris traitées (leucémie L 1210; [9]): 16,9 ± 3,7 jours
survivants (leucémie L 1210; [9]): 4/15
% de cellules tumorales tuées (leucémie L 1210; [10]): 99%
ILS (leucémie L 1210; [10]): 127%
survie moyenne en jours des souris traitées (leucémie L 1210; [10]): 11,8 ± 0,8 jours
survivants (leucémie L 1210; [10]): 0/15
IC50 (cellules L1210; Mus musculus, L1210, 48 h): 0.236 µM

Cc1nccc2c(C)c3[nH]c4ccc(O)cc4c3cc12 [10-hydroxy olivacine (acétate)]
DL0 (i.p.) [1]: 10-hydroxy olivacine (acétate) DL0(i.p.) = 50 mg
ILS (leucémie L 1210; [11]): non significatif
survie moyenne en jours des souris traitées (leucémie L 1210; [11]): 10,9 jours
survivants (leucémie L 1210; [11]): 0/15
ILS (leucémie L 1210; [12]): non significatif
survie moyenne en jours des souris traitées (leucémie L 1210; [12]): 10,5 ± 0,8 jours
survivants (leucémie L 1210; [12]): 0/10
ILS (leucémie L 1210; [13]): non significatif
survie moyenne en jours des souris traitées (leucémie L 1210; [13]): 9,6 jours
survivants (leucémie L 1210; [13]): 0/15
ILS (leucémie L 1210; [14]): non significatif
survie moyenne en jours des souris traitées (leucémie L 1210; [14]): 12,1 jours
survivants (leucémie L 1210; [14]): 0/15
% de cellules tumorales tuées (leucémie L 1210; [15]): 98,98%
ILS (leucémie L 1210; [15]): 148%
survie moyenne en jours des souris traitées (leucémie L 1210; [15]): 14,4 ± 1,3 jours
survivants (leucémie L 1210; [15]): 2/10
ILS (leucémie L 1210; [16]): non significatif
survie moyenne en jours des souris traitées (leucémie L 1210; [16]): 11,8 jours
survivants (leucémie L 1210; [16]): 0/15

Cc1nccc2c(C)c3[nH]c4ccc(O)cc4c3cc12 [10-hydroxy olivacine]
DL0 (Dose maximale jamais mortelle) [1]: 50 mg/kg
ILS (leucémie L 1210; [8]): 139%
IC50 (cellules L1210; Mus musculus, L1210, 48 h): 0.02 µM

COc1ccc2[nH]c3c(C)c4ccnc(C)c4cc3c2c1 [10-méthoxy olivacine, reference compound]
DL0 (Dose maximale jamais mortelle) [1]: 150 mg/kg
ILS (leucémie L 1210; dose 0,66 of DL0, single i.p., ILS = T/C x 100): 147%
IC50 (cellules L1210; Mus musculus, L1210, 48 h): 1.09 µM

Cc1nccc2c(C)c3[nH]c4ccccc4c3cc12 [olivacine]
toxicités générales (facteur d'augmentation) [1]: 5
propriétés antitumorales (leucémie L 1210): ne modifie que peu
effet thérapeutique antitumoral (leucémie L 1210): disparition de l'effet thérapeutique antitumoral
propriétés antitumorales chez l'animal (facteur d'accroissement) (leucémie L 1210): 1,3

Acétate de 4-méthyl 10-hydroxy olivacinium
diminution de la toxicité (facteur) ([1]; fold decrease on quaternisation, versus the non-quaternised base): 2
DL0 (Dose maximale jamais mortelle) [1]: 100 mg/kg
effet thérapeutique antitumoral (leucémie L 1210): n'est pas modifiée
ILS (leucémie L 1210; dose 1 of DL0, single i.p., ILS = T/C x 100): 155%
diminution de la cytotoxicité (facteur) (cellules L1210): 28,1
diminution de la cytotoxicité (facteur) (cellules L1210; listed as 10-hydroxy olivacine quaternarisée): ~30
IC50 (cellules L1210; L1210 cells, versus controls, after 48 h of culture): 0.562 µM

Acétate de 4-méthyl 10-méthoxy olivacinium
augmentation de la toxicité (facteur) [1, 17]: 1,5
diminution de la cytotoxicité (facteur) (cellules L1210): 1,3

Acétate de 4-méthyl olivacinium
toxicités générales (facteur d'augmentation) [1]: ne varient pas
augmentation de la toxicité (facteur) [1, 17]: 3,3
propriétés antitumorales (leucémie L 1210): fait par contre apparaître des propriétés antitumorales
propriétés antitumorales chez l'animal (facteur d'accroissement) (leucémie L 1210): 1,7
diminution de la cytotoxicité (facteur) (cellules L1210): 1,4
augmentation de la cytotoxicité (facteur) (cellules L1210; fold increase on hydroxylation at position 10 of the named parent): 4
